Measured values reported in patent publication US11684701B2, “Operating room coating applicator and method” (Ethicon, Inc., priority 2018, dated 2023).

What was measured:
Staphylococcus aureus = assay: Zone of inhibition test of gentamicin-coated stainless steel coupon on agar plate; format: cell-based; conditions: 4% gentamicin solution in water nebulized onto 0.5" polished 316 stainless steel coupon; incubated at 38° C. for 24 hours; initial S. aureus inoculum 10^5 bacteria per cubic centimeter
Excerpt: A filter paper disk, or other object, impregnated with a particular antimicrobial agent is applied to an agar medium that is inoculated with the test organism. Where the anti-microbial agent diffuses through the medium, and as long as the concentration of the antimicrobial agent is above the MIC, none of the susceptible organism will grow on or around the disk for some distance. This distance is called a zone of inhibition. […] The diameter of the zone of inhibition is inversely proportional to the MIC.
A 4% gentamicin solution in water was applied to a 0.5″ polished 316 stainless steel coupon using the device described in FIGS. 3A and 3B according to the cycle described in FIG. 10. The stainless steel coupon was then incubated at 38° C. for 24 hours in an agar plate containing an initial Staphylococcus aureus inoculum of 10^5 bacteria per cubic centimeter of solution.

microorganism = conditions: French Percuflex catheters dip-coated, sterilized with ethylene oxide, stored; for thirty days after being coated; cited from earlier work

Row | Compound | protective zone of inhibition formed around the coupon (Staphylococcus aureus) | antimicrobial properties (zone of inhibition) (microorganism)
1 | gentamicin | approximately 8 mm | 
2 | Oc1cc(Cl)ccc1Oc1ccc(Cl)cc1Cl [2,4,4′-tricloro-2-hydroxydiphenyl ether] |  | produced a zone of inhibition
